Converted amounts (≈) assume the structure as drawn.

For this data set the following is noted: buffer; pH 7.4; 200.0 µM.
As for `C=CCNc1nc(S(=O)Cc2ccc(C)cc2)nc2c1CCCC2` (centres undefined), the kinetic solubility is above 51.2 µg/mL.

In the case of `O=C1NCCN1CCNS(=O)(=O)c1ccccc1[N+](=O)[O-]`, the kinetic solubility is above 47.1 µg/mL.

`CCN(CC)CCN=Cc1c(O)n(Cc2ccccc2)c(=O)[nH]c1=O`: the kinetic solubility is above 51.7 µg/mL.

`Cc1ccc(S(=O)(=O)NCCN2CCNC2=O)cc1` displayed a kinetic solubility of 38.5 µg/mL (≈ 136 µM).

`COc1cccc(CN(C)Cc2nc(C3CC3)no2)c1` came in with a kinetic solubility above 41 µg/mL.

In turn, `Cc1c2c(n3c(nc4ccccc43)c1C#N)N(CCCN(C)C)CC2` yielded a solubility (kinetic) above 50 µg/mL.

`O=[N+]([O-])c1cc(S(=O)(=O)N2CCOCC2)ccc1NS(=O)(=O)c1ccccc1` displayed a solubility (kinetic) above 64.1 µg/mL.

As for `CN(Cc1nc2ccccc2c(=O)[nH]1)C(=O)C1CC(=O)N(c2cccc3ccccc23)C1` (centres undefined), the solubility (kinetic) is above 64 µg/mL.

Turning to `COc1ccc(NC(=O)c2cc(-c3cccc(OC)c3)on2)cc1`, the kinetic solubility was below 0.3 µg/mL.

In the case of `O=[N+]([O-])c1ccc(SCCO)nc1SCCO`, the solubility (kinetic) is above 41.4 µg/mL.

For `C=CCn1c(O)c(C=Nc2ccc(CN3CCCCC3)cc2)c(=O)[nH]c1=S`, the solubility (kinetic) is 51.8 µg/mL (≈ 135 µM).

In turn, `O=c1[nH]c(-c2ccccc2)ncc1Oc1ccccc1` showed a solubility (kinetic) of 33.7 µg/mL (≈ 128 µM).

`Cc1cc(Cl)ccc1-n1c(-c2cccnc2)n[nH]c1=S` gave a kinetic solubility above 45.4 µg/mL.

Regarding `COc1ccc(Nc2cc(Sc3ccc(OC)cc3)ncn2)cc1`, the kinetic solubility was found to be 4.6 µg/mL (≈ 13.6 µM).

With `CN(C)S(=O)(=O)c1cc(NC(=O)COC(=O)CC2CC3CCC2C3)ccc1Cl` (centres undefined), the kinetic solubility turned out to be 13.7 µg/mL (≈ 31.9 µM).

`CC1CCCN(S(=O)(=O)c2cc3c4c(c2)CCN4C(=O)CC3)C1` (centres undefined) displayed a kinetic solubility above 50.2 µg/mL.

On to `CC(=O)Oc1ccc(C2(C)CC(C)(C)NC(=S)N2C)c(OC(C)=O)c1` (centres undefined), for which the kinetic solubility is above 54.7 µg/mL.

`O=c1[nH]c2cc3c(cc2cc1CN(Cc1cccnc1)C(=S)NCc1ccco1)OCCO3` came in with a solubility (kinetic) below 0.2 µg/mL.

Compound `CCc1cc(S(N)(=O)=O)cc(CC)c1NC(C)=O` came in with a solubility (kinetic) of 38.4 µg/mL (≈ 142 µM).

Regarding `Cc1ccc(NC(=S)Nc2ccc(F)cc2)cc1`, the solubility (kinetic) was determined as 11.1 µg/mL (≈ 42.6 µM).

`COc1cccc(/C=C/C(=O)Nc2ccccc2N2CCOCC2)c1` returned a solubility (kinetic) of 28.1 µg/mL (≈ 83 µM).

Take `Cc1ccc(S(=O)(=O)n2cc(C=O)c3ccccc32)cc1`: the kinetic solubility is below 0.6 µg/mL.

With `Cc1cc(CSc2nc(C)cc(=O)[nH]2)c2ncccc2c1`, the solubility (kinetic) is 8.7 µg/mL (≈ 29.3 µM).

`O=C(c1ccc([N+](=O)[O-])cc1[N+](=O)[O-])n1cnc2ccccc21` showed a solubility (kinetic) of 22.9 µg/mL (≈ 73.3 µM).

`O=C(NC12CC3CC(CC(C3)C1)C2)c1ccc(Br)o1`: the solubility (kinetic) came out at 9.7 µg/mL (≈ 29.9 µM).

The compound `CCc1ncc(/C=C2\C(=O)Nc3ccccc32)[nH]1` had a kinetic solubility of 6.7 µg/mL (≈ 28 µM).

Take `CC(C)CCN(C(=S)Nc1cccc(F)c1)C1CCN(C(C)C)CC1`: the kinetic solubility is 48.2 µg/mL (≈ 132 µM).

On to `Cc1nc(N2CCC(C(N)=O)CC2)c2c(-c3cccs3)csc2n1`, for which the solubility (kinetic) is above 53.8 µg/mL.

`COc1ccc(CN2CSC(=S)N(Cc3ccc(OC)cc3)C2)cc1` yielded a solubility (kinetic) of 0.8 µg/mL (≈ 2.14 µM).

On to `OC(CN1CC=C(c2ccccc2)CC1)c1ccccc1` (centres undefined), for which the solubility (kinetic) was 40.8 µg/mL (≈ 146 µM).

In the case of `COc1ccc(Cl)cc1NCCC(O)c1ccc(F)cc1` (centres undefined), the kinetic solubility worked out at 24.7 µg/mL (≈ 79.7 µM).

Turning to `O=C(Nc1ccc([N+](=O)[O-])cc1)C1COc2ccccc2O1` (centres undefined), the kinetic solubility amounted to 0.9 µg/mL (≈ 3 µM).

With `CC(C)(C)C(=O)/C=c1\[nH]c(=O)/c(=C\c2ccccc2F)s1`, the kinetic solubility was below 0.7 µg/mL.

Consider `CCCC1CC(C(=O)Nc2ccccc2)C(=O)O1` (centres undefined), for which the solubility (kinetic) amounted to 33 µg/mL (≈ 133 µM).

The compound `Cc1c(C)c(C)c(S(=O)(=O)NCCc2ccccn2)c(C)c1C` returned a solubility (kinetic) of 40.3 µg/mL (≈ 121 µM).

In the case of `COc1ccc(C(=O)NCCNc2ccc([N+](=O)[O-])cn2)cc1`, the solubility (kinetic) came out at 16.4 µg/mL (≈ 51.8 µM).

The compound `OCCC1CN(Cc2ccon2)CCN1CCc1ccccc1` (centres undefined) registered a kinetic solubility of 42.3 µg/mL (≈ 134 µM).

Take `CCn1c(N2CCN(C(=O)c3ccco3)CC2)nc2ccccc21`: the kinetic solubility came out at 35.8 µg/mL (≈ 110 µM).

`S=C1NCN(Cc2ccco2)CN1c1cccc2ccccc12` had a solubility (kinetic) above 48.5 µg/mL.

Usually kinetic solubility stands for the concentration staying in solution when a stock, usually in DMSO, is diluted into the medium.
